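96-well plates; 48 h exposure; 5 concentrations. Endpoints by linear interpolation between flanking doses. Not reached: highest tested concentration assigned. GI50 is the concentration that inhibits growth by half.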 Active and inactive are the calls of the source. Cut-off read from the data, not from the text of the source: active = GI50 up to about 1.1 µM and inactive = higher.
Key:
Assay in all cases: DTP human tumour cell line panel, 48 h
PC-3 = system: PC-3
NCI-H23 = system: NCI-H23
MOLT-4 = system: MOLT-4
KM12 = system: KM12
HCT-15 = system: HCT-15
MCF7 = system: MCF7
SN12C = system: SN12C
OVCAR-8 = system: OVCAR-8
A498 = system: A498
SW-620 = system: SW-620
DU-145 = system: DU-145
EKVX = system: EKVX
OVCAR-3 = system: OVCAR-3
SK-OV-3 = system: SK-OV-3
SK-MEL-28 = system: SK-MEL-28
SK-MEL-5 = system: SK-MEL-5
COLO 205 = system: COLO 205
OVCAR-4 = system: OVCAR-4
UO-31 = system: UO-31
Malme-3M = system: Malme-3M

SMILES | GI50 (PC-3) | GI50 (NCI-H23) | GI50 (MOLT-4) | GI50 (KM12) | GI50 (HCT-15) | GI50 (MCF7) | GI50 (SN12C) | GI50 (OVCAR-8) | GI50 (A498) | GI50 (SW-620) | GI50 (DU-145) | GI50 (EKVX) | GI50 (OVCAR-3) | GI50 (SK-OV-3) | GI50 (SK-MEL-28) | GI50 (SK-MEL-5) | GI50 (COLO 205) | GI50 (OVCAR-4) | GI50 (UO-31) | GI50 (Malme-3M)
O=C1/C(=C/c2ccco2)NC(=S)N1CN1CCOCC1 | > 100 µM (inactive) | > 100 µM (inactive) | > 100 µM (inactive) | > 100 µM (inactive) | > 100 µM | > 100 µM (inactive) | > 100 µM (inactive) | > 100 µM (inactive) | > 100 µM (inactive) | > 100 µM (inactive) | > 100 µM (inactive) | > 100 µM (inactive) | > 100 µM (inactive) | > 100 µM (inactive) | > 100 µM (inactive) | > 100 µM (inactive) | > 100 µM (inactive) | > 100 µM (inactive) | > 100 µM (inactive) | 
CC1/C(=N/O)CC(c2ccccc2)N(N=O)C1c1ccccc1 (stereo not drawn) | > 100 µM (inactive) | > 100 µM (inactive) | > 100 µM (inactive) | > 100 µM (inactive) | > 100 µM | > 100 µM (inactive) | > 100 µM (inactive) | > 100 µM (inactive) |  | > 100 µM (inactive) | > 100 µM (inactive) | > 100 µM (inactive) | > 100 µM (inactive) | 82.4 µM (inactive) | > 100 µM (inactive) | > 100 µM (inactive) | > 100 µM (inactive) | > 100 µM (inactive) | > 100 µM (inactive) | > 100 µM (inactive)
Cc1ccc2c(O)cc(-c3ccccc3)nc2n1 | 0.0519 µM (active) | 0.313 µM (active) | 0.116 µM (active) | 0.0304 µM (active) | 0.0352 µM | 0.0509 µM (active) | 0.416 µM (active) | 0.217 µM (active) |  | 0.0389 µM (active) | 0.274 µM (active) | 1.74 µM (inactive) | 0.0346 µM (active) | 0.105 µM (active) | 0.181 µM (active) | 0.0512 µM (active) | 0.0378 µM (active) | 5.24 µM (inactive) | 0.593 µM (active) | 0.0867 µM (active)
COc1c2nc(CCl)n(C)c(=O)c2c(OC)c2c(=O)n(C)c(CCl)nc12 | 1.29 µM (inactive) | 1.62 µM (inactive) | 0.294 µM (active) | 1.22 µM (inactive) | 1.48 µM | 0.48 µM (active) | 1.69 µM (inactive) | 2.67 µM (inactive) | 2.33 µM (inactive) | 1.1 µM (active) | 3.4 µM (inactive) | 3.31 µM (inactive) | 1.84 µM (inactive) |  | 1.85 µM (inactive) | 1.92 µM (inactive) | 1.41 µM (inactive) | > 100 µM (inactive) | 1.24 µM (inactive) | 1.76 µM (inactive)
CC1C(c2ccc(Cl)cc2)c2cc3c(cc2OC1N1CCOCC1)OCO3 (stereo not drawn) | 67.3 µM (inactive) | > 100 µM (inactive) | > 100 µM (inactive) | > 100 µM (inactive) | > 100 µM | > 100 µM (inactive) | > 100 µM (inactive) | > 100 µM (inactive) |  | > 100 µM (inactive) | > 100 µM (inactive) | > 100 µM (inactive) | 85.3 µM (inactive) |  | > 100 µM (inactive) | 51.3 µM (inactive) | > 100 µM (inactive) |  | 54.3 µM (inactive) | 
N=C(c1ccc2ccccc2c1)c1ccccc1Cc1ccccc1 | 51.6 µM (inactive) | 41.7 µM (inactive) | 21.7 µM (inactive) | 25.2 µM (inactive) | 28.8 µM | 33.5 µM (inactive) | 34.8 µM (inactive) | 44 µM (inactive) | 82.8 µM (inactive) | 37.8 µM (inactive) | 29.8 µM (inactive) | 17.3 µM (inactive) | 22.1 µM (inactive) | 43 µM (inactive) | 62.4 µM (inactive) | 37.2 µM (inactive) | > 100 µM (inactive) | 34.7 µM (inactive) | 33.4 µM (inactive) | 
C=C1CC(C#N)(C#N)[C@@H]2CC3CCCC3[C@H]12.C=C1CC(C#N)(C#N)[C@H]2C3CCCC3C[C@@H]12 (stereo partly drawn) | 30.1 µM (inactive) | 10 µM (inactive) | 13.1 µM (inactive) | 20.1 µM (inactive) | 15.9 µM | 16.3 µM (inactive) | 15.7 µM (inactive) | 17.8 µM (inactive) | 19.7 µM (inactive) | 15 µM (inactive) | 38.4 µM (inactive) | 24.2 µM (inactive) | 19.3 µM (inactive) | 25.4 µM (inactive) | 21.2 µM (inactive) | 24.7 µM (inactive) |  |  | 20.7 µM (inactive) | 
CCOC(=O)C1=C(c2ccccc2)N(C)c2ccccc2S1 | 29.9 µM (inactive) | 20.1 µM (inactive) | 32.4 µM (inactive) |  | 14.6 µM | 36 µM (inactive) | 23.9 µM (inactive) | 33.6 µM (inactive) |  | 44.4 µM (inactive) | 44.2 µM (inactive) | 32 µM (inactive) | 36 µM (inactive) | 92.5 µM (inactive) | 38.9 µM (inactive) | 16.1 µM (inactive) | 31.3 µM (inactive) | 30.1 µM (inactive) | 22.4 µM (inactive) | 40.6 µM (inactive)
OCCOCCN1CCN(c2nc(N3CCCC3)c3nc(Cl)c(NCc4ccccc4)nc3n2)CC1 | 13.9 µM (inactive) | 16.3 µM (inactive) | 10.7 µM (inactive) | 10.1 µM (inactive) | 4.27 µM | 13.9 µM (inactive) | 15.6 µM (inactive) | 17.4 µM (inactive) |  | 17.7 µM (inactive) | 11.9 µM (inactive) | 13.6 µM (inactive) | 13.8 µM (inactive) | 17.2 µM (inactive) | 14.4 µM (inactive) | 5.55 µM (inactive) | 7.35 µM (inactive) | 15 µM (inactive) | 9.4 µM (inactive) | 15.8 µM (inactive)
CCN(CC)CCO/N=C1\CC[C@H]2[C@@H]3CC=C4C[C@@H](O)CC[C@]4(C)[C@H]3CC[C@]12C | 19 µM (inactive) | 16.2 µM (inactive) | 15.7 µM (inactive) | 17.8 µM (inactive) | 10.5 µM | 16.6 µM (inactive) | 45.6 µM (inactive) | 21.5 µM (inactive) | 18.5 µM (inactive) | 15.1 µM (inactive) | 18.9 µM (inactive) | 35 µM (inactive) | 19.5 µM (inactive) |  | 15.7 µM (inactive) | 12.1 µM (inactive) | 12.8 µM (inactive) | 25.5 µM (inactive) | 15.8 µM (inactive) | 16.1 µM (inactive)
O=C1/C(=C/c2cccs2)N=C(c2ccccc2)N1C1Nc2cc3c(cc2S1)NC(N1C(=O)/C(=C/c2cccs2)N=C1c1ccccc1)S3 (stereo not drawn) | 38.7 µM (inactive) | 17.4 µM (inactive) | 12.6 µM (inactive) | 32.8 µM (inactive) | 15.6 µM | 23 µM (inactive) |  | 17.1 µM (inactive) | 69.5 µM (inactive) | 26.9 µM (inactive) | 24.7 µM (inactive) | 15.6 µM (inactive) | 30.7 µM (inactive) |  | 32.3 µM (inactive) | 17 µM (inactive) |  | 24.9 µM (inactive) | 35.3 µM (inactive) | 
COc1ccc(/C=C(\C#N)c2nc(-c3cc4ccccc4oc3=O)cs2)cc1 | 47.8 µM (inactive) |  | > 100 µM (inactive) | 24.3 µM (inactive) | 51.6 µM | 55.7 µM (inactive) | 23.8 µM (inactive) | 18.1 µM (inactive) |  | 19.7 µM (inactive) | 65.2 µM (inactive) | 35 µM (inactive) |  | 16.4 µM (inactive) | 27.5 µM (inactive) | 22.1 µM (inactive) | 50.6 µM (inactive) | 23.9 µM (inactive) | 23.2 µM (inactive) | 20.1 µM (inactive)
O=C1CCCc2ccc3c(c21)CC1(Cc2ccccc2C1)C3 | 98.4 µM (inactive) | 36.8 µM (inactive) |  | 38.9 µM (inactive) | 41.7 µM | 57.5 µM (inactive) | 26.1 µM (inactive) | 34.2 µM (inactive) | 25.6 µM (inactive) |  |  | 7.78 µM (inactive) | 33.5 µM (inactive) | 53.5 µM (inactive) |  | 18.5 µM (inactive) | 17.2 µM (inactive) | 17.2 µM (inactive) | 50.1 µM (inactive) | 33.2 µM (inactive)
Cc1ccc([N+](=O)[O-])cc1S(=O)(=O)Nc1ccc(C(=O)/C=C/c2ccccc2)cc1 | 15.6 µM (inactive) | 16.7 µM (inactive) | 4.51 µM (inactive) | 16.7 µM (inactive) | 19.5 µM | 10.1 µM (inactive) | 19.8 µM (inactive) | 23.2 µM (inactive) |  | 24.7 µM (inactive) | 15.8 µM (inactive) | 18 µM (inactive) | 15.7 µM (inactive) | 31.3 µM (inactive) | 23.4 µM (inactive) | 16.3 µM (inactive) | 20.6 µM (inactive) | 1.96 µM (inactive) | 18.4 µM (inactive) | 18.5 µM (inactive)
Cn1c(S)nc2c(Cl)cc(Cl)cc2c1=O | > 100 µM (inactive) | > 100 µM (inactive) | 18.7 µM (inactive) | > 100 µM (inactive) | > 100 µM | 71.4 µM (inactive) | > 100 µM (inactive) | > 100 µM (inactive) |  | > 100 µM (inactive) | > 100 µM (inactive) | > 100 µM (inactive) | > 100 µM (inactive) | 74 µM (inactive) | > 100 µM (inactive) | 99.5 µM (inactive) | > 100 µM (inactive) | > 100 µM (inactive) | 64 µM (inactive) | 
CCCCCCCCCCCCCCCCCCNC(=S)N/C=C1/C(=O)C=C(C)OC1=O | 17 µM (inactive) | 22.8 µM (inactive) | 12.7 µM (inactive) | 16.6 µM (inactive) | 15.7 µM | 29.9 µM (inactive) | 37.8 µM (inactive) | 23.8 µM (inactive) |  | 27.4 µM (inactive) | 24.9 µM (inactive) | 20.6 µM (inactive) | 32.1 µM (inactive) | 58.2 µM (inactive) | 32.4 µM (inactive) | 29.6 µM (inactive) | 27.7 µM (inactive) | 23.7 µM (inactive) | 16.9 µM (inactive) | 
